This data set deals with sensor cells. Kind of data set: Impedance response of a sensor with photosensitive living cells to light pulses on exposure to a cytotoxin (FIG. 9). The data set is classed as cell-based. Conditions: toxin sample vs. clean sample, optically stimulated sensor cells. From the text:
FIG. 2 illustrates an exemplary behavior of sensor cells when exposed to light according to some embodiments of the present invention. Some embodiments employ sensor cells which are genetically modified to express an opsin (e.g., channel rhodopsin, without loss of generality), and/or other channel proteins with a role in maintaining cellular homeostasis (e.g., potassium channel ROMK1, without loss of generality). In the illustrated example, exposure to light induces a sudden intake of sodium ions through the cell membrane, which may substantially change the membrane potential and therefore the measured impedance of the respective cell. […]
FIGS. 4-A-B show exemplary impedance responses of a sensor to a single light pulse and to a pulse train, respectively, according to some embodiments of the present invention wherein the sensor is prepared to contain cells having optically-sensitive ion channels. As the cellular membrane potential changes in response to the light pulse(s), the change is registered in the measured impedance of the sensor. […] This observation enables some embodiments of the present invention to detect and/or quantitate the target analyte from time series of impedance measurements. […]
A step 120 acquires a target impedance time series comprising a plurality of values, at least two of which are determined at distinct moments in time. […]

For the compound `C[C@@H]1O[C@@H](O[C@H]2C[C@@H](O)[C@]3(CO)[C@H]4[C@H](O)C[C@]5(C)[C@@H](C6=CC(=O)OC6)CC[C@]5(O)[C@@H]4CC[C@]3(O)C2)[C@H](O)[C@H](O)[C@H]1O` [ouabain], the “response of the sensor to exposure to a cytotoxin (impedance response, membrane repolarization after light pulses)” value was “visible modifications of cell homeostasis”.

These data come from patent US11680939B2, “Systems and methods for detecting bioactive compounds using sensors with pre-stimulated cells” (priority 2019, dated 2023).
